Results as given in patent publication US8093243B2, “Hepatitis C virus inhibitors” (Bristol-Myers Squibb Company, priority 2008, dated 2012).
Where two headings read alike, the source gives them in different places.

System: HCV 1b genotype
Assay: HCV replicon assay (HCV-neo replicon cells)
Assay type: cell-based
Conditions: Hepatitis C virus, HCV 1b genotype replicon
Procedure: An HCV Replion assay was utilized in the present disclosure, and was prepared, conducted and validated as described in commonly owned PCT/US2006/022197 and in O'Boyle et. al. Antimicrot Agents Chemother. 2005 April; 49(4):1346-53.
HCV-neo replicon cells were used to test the currently described compound series as well as cells resistant to compound A containing mutations in NS5A (described in application PCT/US2006/022197). The compounds tested were determined to have more than 10-fold less inhibitory activity on cells containing the mutation than wild-type cells indicating a related mechanism of action between the two compound series. Thus, the compounds of the present disclosure can be effective to inhibit the function of the HCV NS5A protein and are understood to be as effective in combinations as previously described in application PCT/US2006/022197 and commonly owned WO 04/014852. Further, the compounds of the present disclosure can be effective against the HCV 1b genotype. It should also be understood that the compounds of the present disclosure can inhibit multiple genotypes of HCV. […] In one embodiment compounds of the present disclosure are active against the 1a, 1b, 2a, 2b, 3a, 4a, and 5a genotypes. Activity ranges are as follows: A=501 nM-1 μM; B 1-500 nM; C=100-999 pM.

SMILES	EC50 (activity range class)	EC50 (read-out: EC50 Range/Value)
COC(=O)N[C@H](C(=O)N1CCC[C@H]1c1ncc(-c2ccc(-c3ccc4ncnc(Nc5ccc(N6CCOCC6)cc5)c4c3)cc2)[nH]1)C(C)C [Example 1]	1 to 500 nM	
CC(=O)N1CCC[C@H]1c1ncc(-c2ccc(-c3ccc4ncnc(Nc5ccc(N6CCOCC6)cc5)c4c3)cc2)[nH]1 [Example 6]	501 to 1000 nM	
c1nc(Nc2ccc(N3CCOCC3)cc2)c2cc(-c3ccc(-c4cnc([C@@H]5CCCN5)[nH]4)cc3)ccc2n1 [Example 1 step f]		1510 nM
CC(C)(C)OC(=O)N1CCC[C@H]1c1ncc(-c2ccc(-c3ccc4ncnc(Nc5ccc(N6CCOCC6)cc5)c4c3)cc2)[nH]1 [Example 1 step e]	1 to 500 nM	
